Experimental findings from patent publication US8563717B2, “Adenine derivatives” (GlaxoSmithKline LLC, priority 2008, dated 2013) are described below.

Molecules are shown by their SMILES.

Holding throughout (format): cell-based
One assay has as its system IL-13. The experiment in a line: Allergen-driven cytokine assay using fresh human PBMCs from atopic volunteers (IL-13). The conditions noted are these: PBMC, PBMCs from at least two allergic donors, 10 μg/ml Timothy grass antigen, compared to the allergen control, read-out: concentration at which ≧50% reduction of IL-13 production observed. Here is the method:
(§1) Allergen-Driven Cytokine Assay Using Fresh Human Peripheral Blood Mononuclear Cells (PBMCs) from Atopic Volunteers
(§2) An assay based on co-culture of atopic human donor derived peripheral blood mononuclear cells (PBMCs) with allergen and test compounds was developed. After 5-6 days culture, cell supernatants were assayed for a range of cytokines.
(§3) Compounds were dissolved in DMSO, then serially diluted in growth medium (RPMI 1640 medium supplemented with 100 U/ml penicillin G, 100 μg/ml streptomycin, 10 mM L-glutamine) to give 4× the required concentration range in the presence of 0.04% DMSO. Each compound was assayed in triplicate at all concentrations.
(§4) Defibrinated human blood from volunteers known to be allergic to Timothy grass was centrifuged at 2500 rpm for 15 minutes. The upper layer of serum was collected and heat-inactivated at 56° C. for 30 minutes (HI-autologous serum). The lower layer of cells was resuspended in 50 ml PBS (+Ca +Mg), 25 ml diluted blood were overlaid onto 20 ml Lymphoprep in 50 ml tubes then centrifuged at 2500 rpm for 20 minutes at RT. The band at the serum/Lymphoprep interface was carefully removed. The collected cells were washed with PBS and re-suspended at 4×10^6/ml in growth medium with HI-autologous serum. PBMCs were seeded at 0.4×10^6 cells/well in flat-bottomed 96 well plates in the presence of 10 μg/ml Timothy grass antigen (Alk Abello) and test compounds at appropriate concentrations in a total volume of 200 ul.
(§5) Plates were incubated at 37° C. in 5% CO2 for up to 6 days. The cell medium from each well was harvested and stored at −20° C. prior to analysis. Cytokines and chemokines in supernatants were detected using Meso Scale Discovery 10 spot plates for Human TH1/Th2 cytokines.

The subject of another assay is IL-5. The experiment in a line: Allergen-driven cytokine assay using fresh human PBMCs from atopic volunteers (IL-5). The following applies: PBMC, PBMCs from at least two allergic donors, 10 μg/ml Timothy grass antigen, compared to the allergen control, read-out: concentration at which ≧50% reduction of IL-5 production observed. Here is the method:
as §1, §2, §3, §4, §5

The test system of assay [1] is Interferon-α. The experiment in a line: Induction of Interferon-α using cryopreserved human PBMCs. The conditions noted are these: PBMC, 24 h incubation, normalised to 1 uM resiquimod, read-out: mean pEC50 for induction of IFN-α (converted). The procedure, abridged:
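Cryopreserved healthy-donor PBMCs at 1×10^6 cells/ml in RPMI/10% FCS with 1000 units/ml IFN-gamma, exposed 24 h at 37 °C to 11-point two-fold compound dilutions. Supernatant IFN-α quantified by MSD electrochemiluminescence immunoassay; pEC50 from 4-parameter fit, normalised to 1 uM resiquimod and DMSO.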

The next assay has as its system TNF-α. The experiment in a line: Induction of TNF-α using fresh human PBMCs. The following applies: PBMC, 24 hr incubation, relative to 2 μM resiquimod control, read-out: mean pEC50 for induction of TNF-α (converted). The protocol:
(§6) Assay for the Induction of Interferon-α and TNF-α Using Fresh Human Peripheral Blood Mononuclear Cells (PBMCs)
(§7) Compounds were dissolved and serially diluted in DMSO to give 100× the required concentration range using a Biomek 2000. 1 ul of test compound was transferred into 96-well tissue culture plates using a Biomek FX. Each compound was assayed in duplicate for each donor. Each plate contained a dilution series of the TLR7/8 agonist resiquimod as standard and Column 11 contained 1 μl of 200 μM resiquimod (giving a 2 μM final concentration, used to define the approximate maximal response to resiquimod).
(§8) Blood samples from two human donors were collected into sodium heparin (10 U/ml). 25 ml volumes of whole blood were overlaid onto 15 mls Histopaque in Leucosep tubes which were centrifuged at 800 g for 20 min and the band at the plasma/histopaque interface carefully removed. The collected cells were centrifuged at 2500 rpm for 10 min. and the pellet resuspended in 10 ml of media (RPMI 1640 (Low endotoxin) supplemented with 10% v/v foetal calf serum (FCS, low endotoxin) 100 U/ml penicillin G, 100 μg/ml streptomycin, 10 mM L-glutamine and 1× non-essential amino acids). A 1:20 dilution of the cells was prepared using trypan blue & the cells counted using a haemocytometer. The PBMCs were diluted to give a final concentration of 2×10^6/ml and 100 ul of this cells suspension was added to wells containing 1 μl of diluted test compound.
(§9) The cell preparations were incubated for 24 hr. (37° C., 95% air, 5% CO2) after which a sample of the supernatant was removed using the Biomek FX and assayed for both IFN-α and TNF-α using the MSD (Mesoscale Discovery) electrochemiluminescence assay platform. The IFN-α assay was carried out similarly to that described above. The TNF-α assay was carried out as per kit instructions (Cat No K111BHB).
(§10) Cytokine released was expressed as a percentage of the 2 μM resiquimod control (column 11). This percentage was plotted against compound concentration and the pEC50 for the response determined by non-linear least squares curve fitting. For the IFN-α responses generally a 4 parameter logistic model was selected. For the TNF responses where a clear maximum response was obtained (i.e. a well defined plateau in the response was observed) then a 4 parameter model was generally used. If the upper asymptote of the curve wasn't well defined then the curve fitting was generally constrained to a maximal response of 100% (i.e., to the response to 2 μM resiquimod) or to the response of the highest concentration tested if this was greater than the resiquimod response. Some curves were bell shaped for one or both cytokines and the cytokine data on the down slope of the bell shaped response (i.e. concentrations above those giving the maximal response) were generally excluded from the fit, usually with the exception of the concentration immediately above the peak response. Curve fitting thus concentrated on the up slope of the dose response curve.

Assay [2] concerns Interferon-α. The experiment in a line: Induction of Interferon-α using fresh human PBMCs. The conditions noted are these: PBMC, 24 hr incubation, relative to 2 μM resiquimod control, read-out: mean pEC50 for induction of IFN-α (converted). The protocol:
as §6, §7, §8, §9, §10

For `CCCCOc1nc(N)c2[nH]c(=O)n(CCCC3CCN(CC)CC3)c2n1` [Example 9], the IC50 in the assay on IL-13 is at most 0.04 µM; in the assay with IL-5, at most 0.008 µM. For the same molecule, the EC50 with Interferon-α [1] is below 1.58 µM; in the assay with TNF-α, above 1 µM; in the assay on Interferon-α [2] it was below 0.01 µM.

For `CCC[C@H](C)Oc1nc(N)c2[nH]c(=O)n(CCC3CCN(C(C)C)CC3)c2n1` [Example 92, 6-Amino-2-{[(1S)-1-methylbutyl]oxy}-9-{2-[1-(1-methylethyl)-4-piperidinyl]ethyl}-7,9-dihydro-8H-purin-8-one], the IC50 was at most 0.04 µM in the assay with IL-13 and at most 0.008 µM in the assay with IL-5. Further, the EC50 in the assay on Interferon-α [1] is below 1.58 µM; in the assay with TNF-α, above 1 µM; with Interferon-α [2], below 0.01 µM.

For the molecule `CCCCOc1nc(N)c2[nH]c(=O)n(CCC3CCCN(C4CCCCC4)C3)c2n1` (centres unmarked) [Example 38, 6-Amino-2-(butyloxy)-9-[2-(1-cyclohexyl-3-piperidinyl)ethyl]-7,9-dihydro-8H-purin-8-one], the figures for the EC50 in the assay with Interferon-α [1], in the assay with TNF-α and in the assay on Interferon-α [2] were below 1.58 µM, above 1 µM and below 0.001 µM, respectively.

As to `CCC[C@H](C)Oc1nc(N)c2[nH]c(=O)n(CCCCC3CCN(CC)CC3)c2n1` [Example 119, 6-Amino-9-[4-(1-ethyl-4-piperidinyl)butyl]-2-{[(1S)-1-methylbutyl]oxy}-7,9-dihydro-8H-purin-8-one], the values for the EC50 in the assay on Interferon-α [1], in the assay on TNF-α and in the assay with Interferon-α [2] were below 1.58 µM, above 0.0316 µM and below 0.000316 µM, respectively.

`CCCCOc1nc(N)c2[nH]c(=O)n(CCC3CCCNC3)c2n1` (centres unmarked) [Example 29, 6-amino-2-(butyloxy)-9-[2-(3-piperidinyl)ethyl]-7,9-dihydro-8H-purin-8-one]: the EC50 was below 1.58 µM with Interferon-α [1], above 1 µM in the assay on TNF-α and below 0.1 µM in the assay with Interferon-α [2].

Take `CCCCOc1nc(N)c2[nH]c(=O)n(CCCCCC3CCNCC3)c2n1` [Example 122, 6-Amino-2-(butyloxy)-9-[5-(4-piperidinyl)pentyl]-7,9-dihydro-8H-purin-8-one]: the EC50 in the assay on Interferon-α [1] is below 1.58 µM; with TNF-α, above 0.0316 µM; in the assay on Interferon-α [2], below 0.000316 µM.

Take `CCCCOc1nc(N)c2[nH]c(=O)n(CC3CCCN(CC)C3)c2n1` (centres unmarked) [Example 1, 6-Amino-2-butoxy-9-[(1-ethyl-3-piperidinyl)methyl]-7,9-dihydro-8H-purin-8-one]: the EC50 in the assay with Interferon-α [1] was below 1.58 µM; in the assay with TNF-α, above 1 µM; in the assay on Interferon-α [2], below 0.1 µM.

As to `CCCCOc1nc(N)c2[nH]c(=O)n(CC3CCCN(C(C)C)C3)c2n1` (centres unmarked) [Example 24, 6-Amino-2-(butyloxy)-9-{[1-(1-methylethyl)-3-piperidinyl]methyl}-7,9-dihydro-8H-purin-8-one], the EC50 was below 1.58 µM in the assay on Interferon-α [1], above 1 µM in the assay on TNF-α and below 0.1 µM in the assay with Interferon-α [2].

Consider `CCCCOc1nc(N)c2[nH]c(=O)n(CCCC3CCN(CCC)CC3)c2n1` [Example 94, 6-Amino-2-(butyloxy)-9-[3-(1-propyl-4-piperidinyl)propyl]-7,9-dihydro-8H-purin-8-one], for which the EC50 was below 1.58 µM in the assay with Interferon-α [1], above 1 µM in the assay with TNF-α and below 0.001 µM in the assay with Interferon-α [2].

On to `CCCCOc1nc(N)c2[nH]c(=O)n(CCC3CCCN(CC)C3)c2n1` (centres unmarked) [Example 30, 6-Amino-2-(butyloxy)-9-[2-(1-ethyl-3-piperidinyl)ethyl]-7,9-dihydro-8H-purin-8-one], for which the EC50 was below 1.58 µM in the assay on Interferon-α [1], above 1 µM in the assay on TNF-α and below 0.01 µM in the assay with Interferon-α [2].

Regarding `CCC[C@H](C)Oc1nc(N)c2[nH]c(=O)n(CCC3CCCN(C(C)C)C3)c2n1` (stereo partly drawn) [Example 42, 6-Amino-2-{[(1S)-1-methylbutyl]oxy}-9-{2-[1-(1-methylethyl)-3-piperidinyl]ethyl}-7,9-dihydro-8H-purin-8-one], the values for the EC50 in the assay on Interferon-α [1], in the assay with TNF-α and in the assay on Interferon-α [2] were below 1.58 µM, above 0.0316 µM and below 0.000316 µM, respectively.

Turning to `CCCCOc1nc(N)c2[nH]c(=O)n(CC3CCN(CC)CC3)c2n1` [Example 7], the EC50 is below 1.58 µM in the assay with Interferon-α [1], above 1 µM in the assay on TNF-α and below 0.1 µM in the assay on Interferon-α [2].

As to `CC(C)Oc1nc(N)c2[nH]c(=O)n(CCCCC3CCNCC3)c2n1` [Example 135, 6-Amino-2-[(1-methylethyl)oxy]-9-[4-(4-piperidinyl)butyl]-7,9-dihydro-8H-purin-8-one], the EC50 in the assay with Interferon-α [1] was below 1.58 µM; in the assay with TNF-α, above 1 µM; in the assay on Interferon-α [2], below 0.1 µM.

On to `CCCCOc1nc(N)c2[nH]c(=O)n(CCCCC3CCN(CC)CC3)c2n1` [Example 10, 6-Amino-2-(butyloxy)-9-[4-(1-ethyl-4-piperidinyl)butyl]-7,9-dihydro-8H-purin-8-one], for which the IC50 in the assay on IL-13 is at most 0.04 µM; with IL-5, at most 0.008 µM. Further, the EC50 was below 1.58 µM in the assay with Interferon-α [1], above 1 µM in the assay on TNF-α and below 0.01 µM in the assay with Interferon-α [2].

As for `CCCCOc1nc(N)c2[nH]c(=O)n(CCC3CCN(CC)CC3)c2n1` [Example 8], the figures for the IC50 in the assay with IL-13 and in the assay with IL-5 were at most 0.04 µM and at most 0.008 µM, respectively. Also, the EC50 is below 1.58 µM with Interferon-α [1], above 1 µM in the assay on TNF-α and below 0.1 µM in the assay on Interferon-α [2].

Take `CCCCOc1nc(N)c2[nH]c(=O)n(CCCCC3CCN(CCC)CC3)c2n1` [Example 108, 6-Amino-2-(butyloxy)-9-[4-(1-propyl-4-piperidinyl)butyl]-7,9-dihydro-8H-purin-8-one]: the EC50 in the assay on Interferon-α [1] is below 1.58 µM; in the assay on TNF-α, above 1 µM; in the assay on Interferon-α [2] it was below 0.001 µM.
